≈ marks a conversion by molar mass, not a printed value. Calls of active or inactive are those of the source. The calls are words filed in the database; no cut-off is given here.
Columns and labels:
[1] = biological target: T1, Prostaglandin D2 receptor 2 (Homo sapiens) (UniProt Q9Y5Y4); test: Antagonist activity at human CRTh2 receptor expressed in CHO cells assessed as inhibition of prostaglandin D2 and forskolin-induced cAMP accumulation after 45 mins in presence of 0.1% HSA; format: functional, cell-based
T1 sequence (whole entry): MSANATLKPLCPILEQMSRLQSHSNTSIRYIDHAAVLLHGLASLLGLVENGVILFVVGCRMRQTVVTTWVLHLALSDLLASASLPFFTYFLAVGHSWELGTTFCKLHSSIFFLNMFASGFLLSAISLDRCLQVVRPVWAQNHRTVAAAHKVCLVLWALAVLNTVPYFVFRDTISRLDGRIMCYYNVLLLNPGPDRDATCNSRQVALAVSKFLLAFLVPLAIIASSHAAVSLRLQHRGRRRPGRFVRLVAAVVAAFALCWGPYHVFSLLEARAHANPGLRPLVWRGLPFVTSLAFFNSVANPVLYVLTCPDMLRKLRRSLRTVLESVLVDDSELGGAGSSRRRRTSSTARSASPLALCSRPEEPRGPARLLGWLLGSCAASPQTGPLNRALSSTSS

[2] = biological target: T2, Prostaglandin D2 receptor 2 (Homo sapiens, UniProt Q9Y5Y4); test: Displacement of [3H]-prostaglandin D2 from human CRTh2 receptor expressed in CHO cells after 2 hrs; format: cell-based
T2 sequence (Q9Y5Y4 whole entry): T1 sequence (whole entry)

[3] = biological target: T2, Prostaglandin D2 receptor 2; test: Antagonist activity at human CRTh2 receptor expressed in CHO cells assessed as inhibition of prostaglandin D2 and forskolin-induced cAMP accumulation after 45 mins; format: functional, cell-based
[4] = Cmax in Wistar rat at 3 mg/kg, po; format: ADME, organism-based; set-up: dose 3 mg/kg, route oral; settings: in vivo
[5] = biological target: T3, Prostaglandin G/H synthase 2 (Homo sapiens) (UniProt P35354); test: Inhibition of human COX2 at 10 uM
T3 sequence (whole entry): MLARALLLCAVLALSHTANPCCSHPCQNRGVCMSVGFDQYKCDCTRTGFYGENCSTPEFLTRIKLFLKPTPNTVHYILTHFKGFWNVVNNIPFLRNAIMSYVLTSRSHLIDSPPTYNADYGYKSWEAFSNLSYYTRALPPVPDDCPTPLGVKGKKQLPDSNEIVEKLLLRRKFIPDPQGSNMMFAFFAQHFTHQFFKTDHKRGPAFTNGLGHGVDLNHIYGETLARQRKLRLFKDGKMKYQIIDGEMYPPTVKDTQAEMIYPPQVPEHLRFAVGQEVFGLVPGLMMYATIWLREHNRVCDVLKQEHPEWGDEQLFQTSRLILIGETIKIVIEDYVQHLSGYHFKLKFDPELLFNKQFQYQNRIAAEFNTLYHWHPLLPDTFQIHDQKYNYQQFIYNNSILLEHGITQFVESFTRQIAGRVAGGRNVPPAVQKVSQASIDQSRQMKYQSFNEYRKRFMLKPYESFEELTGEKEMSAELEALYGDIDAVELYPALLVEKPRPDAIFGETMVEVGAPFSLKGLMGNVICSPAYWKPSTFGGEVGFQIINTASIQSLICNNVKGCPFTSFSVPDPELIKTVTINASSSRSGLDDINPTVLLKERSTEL

[6] = Apparent permeability from basolateral to apical side in human Caco2 cells; format: ADME, cell-based; settings: Caco-2
[7] = biological target: T4, Prostaglandin D2 receptor 2 (Mus musculus, UniProt Q9Z2J6); test: Antagonist activity at mouse CRTh2 receptor expressed in CHO-K1 cells assessed as inhibition of […]-GTP-gamma-S binding after 50 mins by liquid scintillation counting; format: functional, cell-based
T4 sequence (Q9Z2J6 whole entry): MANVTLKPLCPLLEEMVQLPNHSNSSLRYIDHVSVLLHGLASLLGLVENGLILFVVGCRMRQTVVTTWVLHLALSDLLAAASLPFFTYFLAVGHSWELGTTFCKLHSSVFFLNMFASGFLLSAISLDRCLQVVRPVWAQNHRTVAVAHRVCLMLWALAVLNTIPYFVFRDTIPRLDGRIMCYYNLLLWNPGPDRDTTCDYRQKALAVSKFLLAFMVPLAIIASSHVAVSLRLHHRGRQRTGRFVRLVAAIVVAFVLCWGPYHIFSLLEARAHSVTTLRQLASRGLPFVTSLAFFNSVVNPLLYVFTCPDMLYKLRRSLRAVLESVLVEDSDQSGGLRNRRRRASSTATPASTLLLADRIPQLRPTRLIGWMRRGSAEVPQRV

[8] = Inhibition of DK-PGD2-induced IL-5 production in human CD4+ Th2 cells after 6 to 8 hrs; format: functional, cell-based
[9] = Tmax in Wistar rat at 3 mg/kg, po; format: ADME, organism-based; set-up: dose 3 mg/kg, route oral; settings: in vivo
[10] = biological target: T4, Prostaglandin D2 receptor 2; test: Displacement of [3H]-prostaglandin D2 from mouse CRTh2 receptor expressed in CHO cells after 2 hrs; format: cell-based
[11] = Volume of distribution at steady state in Wistar rat at 0.5 mg/kg, iv; format: ADME, organism-based; set-up: dose 0.5 mg/kg, route intravenous; settings: in vivo, read-out: Vdss
[12] = AUC (0 to 48 hrs) in Wistar rat at 3 mg/kg, po; format: ADME, organism-based; set-up: time < 48 hr, dose 3 mg/kg, route oral; settings: plasma
[13] = biological target: Prostaglandin E2 receptor EP2 subtype (Homo sapiens, UniProt P43116); test: Inhibition of prostanoid EP2 receptor (unknown origin)
Prostaglandin E2 receptor EP2 subtype, sequence (P43116 whole entry): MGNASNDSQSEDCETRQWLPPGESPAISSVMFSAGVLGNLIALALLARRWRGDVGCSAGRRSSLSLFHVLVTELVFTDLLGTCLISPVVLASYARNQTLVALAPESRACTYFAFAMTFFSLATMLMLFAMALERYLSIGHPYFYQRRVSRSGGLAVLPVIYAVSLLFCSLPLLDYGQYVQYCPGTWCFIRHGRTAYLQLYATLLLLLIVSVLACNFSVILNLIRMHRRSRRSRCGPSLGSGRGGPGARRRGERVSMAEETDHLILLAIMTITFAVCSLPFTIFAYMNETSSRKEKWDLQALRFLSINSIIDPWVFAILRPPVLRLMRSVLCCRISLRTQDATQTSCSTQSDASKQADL

[14] = biological target: Prostaglandin E2 receptor EP4 subtype (Homo sapiens, UniProt P35408); test: Inhibition of prostanoid EP4 receptor (unknown origin)
Prostaglandin E2 receptor EP4 subtype, sequence (P35408 whole entry): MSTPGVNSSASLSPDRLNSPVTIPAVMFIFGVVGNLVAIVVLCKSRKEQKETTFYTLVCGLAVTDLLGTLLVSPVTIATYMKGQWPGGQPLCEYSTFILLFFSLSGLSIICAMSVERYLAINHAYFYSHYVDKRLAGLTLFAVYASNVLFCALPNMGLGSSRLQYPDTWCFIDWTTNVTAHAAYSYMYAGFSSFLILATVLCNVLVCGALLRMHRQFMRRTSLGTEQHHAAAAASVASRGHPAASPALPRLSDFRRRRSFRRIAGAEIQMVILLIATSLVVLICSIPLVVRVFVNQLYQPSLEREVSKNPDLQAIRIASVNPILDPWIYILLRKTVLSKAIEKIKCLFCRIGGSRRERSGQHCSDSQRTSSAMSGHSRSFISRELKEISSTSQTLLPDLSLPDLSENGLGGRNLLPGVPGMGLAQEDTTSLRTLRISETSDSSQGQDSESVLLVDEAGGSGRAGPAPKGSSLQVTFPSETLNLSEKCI

[15] = Solubility of the compound at pH 6.8; format: physicochemical; settings: buffer
[16] = Terminal half life in Wistar rat at 0.5 mg/kg, iv; format: ADME, organism-based; set-up: dose 0.5 mg/kg, route intravenous; settings: in vivo, read-out: beta t1/2 (converted)
[17] = Cmax in Wistar rat at 100 mg/kg, po; format: ADME, organism-based; set-up: dose 100 mg/kg, route oral; settings: in vivo
[18] = tested on: Mus musculus; test: Inhibition of FITC hapten-induced ear edema in po dosed Balb/cJBomTac mouse allergic contact dermatitis model after 24 hrs; format: functional
[19] = biological target: Prostacyclin receptor (Homo sapiens, UniProt P43119); test: Inhibition of prostanoid IP receptor (unknown origin)
[20] = Apparent permeability from apical to basolateral side in human Caco2 cells; format: ADME, cell-based; settings: Caco-2
[21] = biological target: Cytochrome P450 3A4 (Homo sapiens, UniProt P08684); test: Inhibition of human CYP3A4; format: ADME
Cytochrome P450 3A4, sequence (P08684 whole entry): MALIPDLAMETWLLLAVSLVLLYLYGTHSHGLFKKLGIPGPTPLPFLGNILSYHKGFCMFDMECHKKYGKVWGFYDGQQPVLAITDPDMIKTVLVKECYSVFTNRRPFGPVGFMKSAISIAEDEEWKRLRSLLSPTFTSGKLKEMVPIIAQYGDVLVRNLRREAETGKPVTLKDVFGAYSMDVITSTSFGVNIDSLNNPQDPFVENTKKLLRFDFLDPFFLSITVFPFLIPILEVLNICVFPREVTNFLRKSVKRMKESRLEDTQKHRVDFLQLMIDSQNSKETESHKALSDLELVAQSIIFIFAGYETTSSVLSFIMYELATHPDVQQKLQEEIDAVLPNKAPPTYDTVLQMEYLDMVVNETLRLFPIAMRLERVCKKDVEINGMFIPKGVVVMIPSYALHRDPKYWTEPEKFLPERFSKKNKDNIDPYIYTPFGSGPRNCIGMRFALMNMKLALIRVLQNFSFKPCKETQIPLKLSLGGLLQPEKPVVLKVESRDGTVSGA

[22] = Cmax in Balb/c mouse at 5 mg/kg, po; format: ADME, organism-based; set-up: dose 5 mg/kg, route oral; settings: in vivo
[23] = AUC (0 to 48 hrs) in Wistar rat at 100 mg/kg, po; format: ADME, organism-based; set-up: time < 48 hr, dose 100 mg/kg, route oral; settings: plasma
[24] = biological target: Cysteinyl leukotriene receptor 2 (Homo sapiens) (UniProt Q9NS75); test: Inhibition of CysLT2 receptor (unknown origin) at 10 uM
Cysteinyl leukotriene receptor 2 (Homo sapiens), sequence (Q9NS75 whole entry): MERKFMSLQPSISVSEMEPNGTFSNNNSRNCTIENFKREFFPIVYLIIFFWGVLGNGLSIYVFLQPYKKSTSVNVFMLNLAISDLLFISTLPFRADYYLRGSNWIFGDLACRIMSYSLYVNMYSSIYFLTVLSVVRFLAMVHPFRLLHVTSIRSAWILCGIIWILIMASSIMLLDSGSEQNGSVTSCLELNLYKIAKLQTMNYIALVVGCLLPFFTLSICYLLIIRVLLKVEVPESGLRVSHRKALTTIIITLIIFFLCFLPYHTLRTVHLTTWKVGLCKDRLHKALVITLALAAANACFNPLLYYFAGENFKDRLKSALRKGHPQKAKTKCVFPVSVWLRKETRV

[25] = tested on: Rattus norvegicus; test: Inhibition of eosinophil recruitment in bronchoalveolar lavage in po dosed Sprague-Dawley rat allergic disease model; format: functional, organism-based; settings: Lung
[26] = biological target: Cytochrome P450 1A2 (Homo sapiens, UniProt P05177); test: Inhibition of human CYP1A2; format: ADME
[27] = biological target: Prostaglandin E2 receptor EP3 subtype (Homo sapiens, UniProt P43115); test: Inhibition of prostanoid EP3 receptor (unknown origin)
Prostaglandin E2 receptor EP3 subtype, sequence (P43115 whole entry): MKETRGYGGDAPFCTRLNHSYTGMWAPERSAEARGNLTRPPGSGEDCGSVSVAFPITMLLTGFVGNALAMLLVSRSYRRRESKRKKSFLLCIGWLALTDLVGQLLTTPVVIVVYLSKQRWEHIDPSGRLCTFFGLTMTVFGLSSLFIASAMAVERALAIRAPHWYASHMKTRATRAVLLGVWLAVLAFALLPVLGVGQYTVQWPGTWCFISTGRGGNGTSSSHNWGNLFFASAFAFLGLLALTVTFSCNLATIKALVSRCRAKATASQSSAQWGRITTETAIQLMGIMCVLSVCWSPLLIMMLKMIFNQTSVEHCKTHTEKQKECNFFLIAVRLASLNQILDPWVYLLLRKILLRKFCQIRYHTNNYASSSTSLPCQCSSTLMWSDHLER

[28] = biological target: Leukotriene B4 receptor 1 (Homo sapiens) (UniProt Q15722); test: Inhibition of LTB4 receptor (unknown origin) at 10 uM
[29] = Inhibition of DK-PGD2-induced IL-13 production in human CD4+ Th2 cells after 6 to 8 hrs; format: functional, cell-based
[30] = biological target: Prostaglandin D2 receptor (Homo sapiens, UniProt Q13258); test: Inhibition of prostanoid DP1 receptor (unknown origin)
Prostaglandin D2 receptor, sequence (Q13258 whole entry): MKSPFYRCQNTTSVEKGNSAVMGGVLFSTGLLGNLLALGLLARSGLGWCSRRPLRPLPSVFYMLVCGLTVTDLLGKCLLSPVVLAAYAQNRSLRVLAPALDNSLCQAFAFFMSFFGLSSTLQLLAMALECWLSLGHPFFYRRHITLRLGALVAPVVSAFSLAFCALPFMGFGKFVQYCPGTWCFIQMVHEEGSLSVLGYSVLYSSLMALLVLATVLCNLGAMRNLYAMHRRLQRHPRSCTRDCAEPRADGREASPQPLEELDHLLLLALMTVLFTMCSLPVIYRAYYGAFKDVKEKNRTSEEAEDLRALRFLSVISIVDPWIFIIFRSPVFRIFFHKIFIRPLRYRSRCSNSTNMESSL

[31] = biological target: Cysteinyl leukotriene receptor 1 (Homo sapiens) (UniProt Q9Y271); test: Inhibition of CysLT1 receptor (unknown origin) at 10 uM
Cysteinyl leukotriene receptor 1 (Homo sapiens), sequence (Q9Y271 whole entry): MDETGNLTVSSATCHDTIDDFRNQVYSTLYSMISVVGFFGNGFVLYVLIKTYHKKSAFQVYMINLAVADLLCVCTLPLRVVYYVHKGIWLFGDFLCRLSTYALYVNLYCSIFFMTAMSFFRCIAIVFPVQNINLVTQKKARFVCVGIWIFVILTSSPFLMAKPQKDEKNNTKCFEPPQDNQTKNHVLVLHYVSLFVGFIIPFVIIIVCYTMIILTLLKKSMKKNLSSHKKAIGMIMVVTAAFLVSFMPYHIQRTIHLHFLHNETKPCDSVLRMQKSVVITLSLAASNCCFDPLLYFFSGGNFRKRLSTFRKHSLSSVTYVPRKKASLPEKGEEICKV

[32] = Tmax in Wistar rat at 100 mg/kg, po; format: ADME, organism-based; set-up: dose 100 mg/kg, route oral; settings: in vivo
[33] = Oral bioavailability in Wistar rat at 3 mg/kg; format: ADME, organism-based; settings: in vivo
[34] = Fraction unbound in Sprague-Dawley rat plasma at 0.1 to 0.3 mg/kg, po; format: ADME, organism-based; set-up: dose 0.1-0.3 mg/kg, route oral
[35] = Clearance in Wistar rat at 0.5 mg/kg, iv; format: ADME, organism-based; set-up: dose 0.5 mg/kg, route intravenous; settings: in vivo
[36] = biological target: Cytochrome P450 2D6 (Homo sapiens, UniProt P10635); test: Inhibition of human CYP2D6; format: ADME
Cytochrome P450 2D6, sequence (P10635 whole entry): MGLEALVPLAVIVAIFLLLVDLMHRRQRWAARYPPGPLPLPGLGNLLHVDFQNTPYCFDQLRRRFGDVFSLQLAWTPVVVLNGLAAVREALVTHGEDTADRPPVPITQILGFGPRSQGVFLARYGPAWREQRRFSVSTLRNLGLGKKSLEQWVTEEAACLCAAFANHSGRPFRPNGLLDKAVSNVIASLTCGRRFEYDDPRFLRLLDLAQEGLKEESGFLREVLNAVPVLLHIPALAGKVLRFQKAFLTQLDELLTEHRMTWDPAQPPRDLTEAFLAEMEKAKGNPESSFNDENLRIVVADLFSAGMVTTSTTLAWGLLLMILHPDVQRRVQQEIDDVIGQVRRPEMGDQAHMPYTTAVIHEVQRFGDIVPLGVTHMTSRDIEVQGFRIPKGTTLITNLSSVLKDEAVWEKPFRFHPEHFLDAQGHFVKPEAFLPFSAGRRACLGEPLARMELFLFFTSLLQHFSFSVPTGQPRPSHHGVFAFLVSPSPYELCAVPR

[37] = tested on: Rattus norvegicus; test: Inhibition of eosinophil recruitment in bronchoalveolar lavage in Sprague-Dawley rat allergic disease model at 1 mg/kg, po; format: functional, organism-based; set-up: dose 1 mg/kg; settings: Lung
[38] = biological target: Thromboxane A2 receptor (Homo sapiens, UniProt P21731); test: Inhibition of prostanoid TP receptor (unknown origin)
Thromboxane A2 receptor, sequence (P21731 whole entry): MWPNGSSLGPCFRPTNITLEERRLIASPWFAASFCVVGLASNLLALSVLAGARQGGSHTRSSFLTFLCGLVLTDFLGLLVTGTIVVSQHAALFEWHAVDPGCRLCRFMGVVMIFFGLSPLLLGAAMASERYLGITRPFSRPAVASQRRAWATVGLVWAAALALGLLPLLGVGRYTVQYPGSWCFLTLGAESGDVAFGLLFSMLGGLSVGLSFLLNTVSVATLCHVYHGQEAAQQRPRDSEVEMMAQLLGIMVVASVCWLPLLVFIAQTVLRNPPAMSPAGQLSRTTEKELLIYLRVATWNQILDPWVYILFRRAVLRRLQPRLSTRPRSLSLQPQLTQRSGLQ

[39] = Oral bioavailability in Wistar rat at 100 mg/kg; format: ADME, organism-based; settings: in vivo
[40] = biological target: Prostaglandin G/H synthase 1 (Homo sapiens) (UniProt P23219); test: Inhibition of human COX1 at 10 uM
Prostaglandin G/H synthase 1 (Homo sapiens), sequence (P23219 whole entry): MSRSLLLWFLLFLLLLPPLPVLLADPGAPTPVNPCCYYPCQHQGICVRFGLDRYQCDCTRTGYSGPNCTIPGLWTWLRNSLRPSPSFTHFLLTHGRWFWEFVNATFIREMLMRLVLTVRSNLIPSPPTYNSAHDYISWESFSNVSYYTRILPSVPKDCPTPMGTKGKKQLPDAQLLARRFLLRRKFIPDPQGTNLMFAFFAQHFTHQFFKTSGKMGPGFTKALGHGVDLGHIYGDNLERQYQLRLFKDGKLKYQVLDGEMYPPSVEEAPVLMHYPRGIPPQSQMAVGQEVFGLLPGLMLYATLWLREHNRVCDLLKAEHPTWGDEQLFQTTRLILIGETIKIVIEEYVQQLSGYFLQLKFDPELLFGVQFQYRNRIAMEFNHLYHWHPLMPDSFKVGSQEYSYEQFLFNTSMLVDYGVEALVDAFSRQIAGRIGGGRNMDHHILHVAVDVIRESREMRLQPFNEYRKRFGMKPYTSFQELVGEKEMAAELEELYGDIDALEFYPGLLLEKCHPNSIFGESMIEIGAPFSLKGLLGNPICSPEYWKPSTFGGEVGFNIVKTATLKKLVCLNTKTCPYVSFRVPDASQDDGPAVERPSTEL

[41] = biological target: Cytochrome P450 2C9 (Homo sapiens, UniProt P11712); test: Inhibition of human CYP2C9; format: ADME
[42] = biological target: Polyunsaturated fatty acid 5-lipoxygenase (Homo sapiens) (UniProt P09917); test: Inhibition of human 5-lipoxygenase at 10 uM
[43] = biological target: Prostaglandin F2-alpha receptor (Homo sapiens, UniProt P43088); test: Inhibition of prostanoid FP receptor (unknown origin)
[44] = Antagonist activity at CRTh2 receptor in human isolated eosinophil assessed as inhibition of DK-PGD2-induced shape change after 5 mins by flow cytometry

Cc1c(CC(=O)O)c2cccnc2n1Cc1ccc([N+](=O)[O-])cc1
fold change (FC) [1]: 4.1

Cc1c(CC(=O)O)c2cccnc2n1Cc1ccccc1Cl
Ki [2]: 624 nM

Cc1c(CC(=O)O)c2cccnc2n1Cc1ccc(C#N)cc1
Ki [2]: 379 nM
fold change (FC) [1]: 3.6
IC50 [3]: 554 nM

Cc1c(CC(=O)O)c2cccnc2n1Cc1ccc([S+](C)[O-])cc1 (racemic)
Ki [2]: 249 nM
fold change (FC) [1]: 3.1
IC50 [3]: 233 nM

Cc1c(CC(=O)O)c2cccnc2n1Cc1ccncc1
Ki [2]: 2230 nM

Cc1c(CC(=O)O)c2cccnc2n1Cc1ccc(S(=O)(=O)C(F)(F)F)cc1
Ki [2]: 208 nM
fold change (FC) [1]: 0.9
IC50 [3]: 147 nM

Cc1c(CC(=O)O)c2cccnc2n1Cc1ccc(S(C)(=O)=O)cc1 [QAV680]
Cmax [4]: 2.6 µM
Ki [2]: 36 nM
inhibition [5]: inactive
Papp B→A [6]: 2.2 ×10⁻⁶ cm/s
IC50 [7]: 94 nM
IC50 [8]: 59 nM
Tmax [9]: 39.6 min
Ki [10]: 10 nM
Vd [11]: 5.5 L/kg
AUC(0-t) at 48 h [12]: 6.06 µM·h
IC50 [13]: > 10000 nM
fold change (FC) [1]: 3.1
IC50 [14]: > 10000 nM
solubility [15]: 5200 µg/mL (≈ 14.5 mM)
half-life [16]: 1030 min
Cmax [17]: 42.7 µM
inhibition [18]: Dose-dependent effect
minimal effective dose ([18]; read-out: MED): 10 mg/kg
IC50 [19]: > 10000 nM
Papp A→B [20]: 0.9 ×10⁻⁶ cm/s
IC50 [21]: > 100000 nM
Cmax [22]: 7.6 µM
AUC(0-t) at 48 h [23]: 128 µM·h
inhibition [24]: inactive
Activity [25]: Dose-dependent effect
IC50 [26]: > 100000 nM
IC50 [27]: > 10000 nM
inhibition [28]: inactive
IC50 [29]: 25 nM
IC50 [30]: > 10000 nM
inhibition [31]: inactive
Tmax [32]: 39.6 min
bioavailability [33]: 54%
IC50 [3]: 37 nM
fraction unbound [34]: 0.34
clearance [35]: 15.2 mL/min/kg
IC50 [36]: > 100000 nM
Activity [37]: Active
IC50 [38]: > 10000 nM
bioavailability [39]: 35%
inhibition [40]: inactive
IC50 [41]: > 100000 nM
inhibition [42]: inactive
IC50 [43]: > 10000 nM

Cc1c(CC(=O)O)c2cccnc2n1S(=O)(=O)c1ccc(Cl)cc1
inhibition [5]: inactive
fold change (FC) [1]: 3.8
IC50 [44]: 108 nM
IC50 [3]: 565 nM
inhibition [40]: inactive

Cc1c(CC(=O)O)c2cccnc2n1Cc1ccccn1
Ki [2]: 2940 nM

Cc1c(CC(=O)O)c2cccnc2n1Cc1cccnc1
Ki [2]: 1060 nM

Cc1c(CC(=O)O)c2cccnc2n1Cc1ccc(Cl)cc1
Ki [2]: 149 nM
inhibition [5]: inactive
fold change (FC) [1]: 4.1
IC50 [3]: 484 nM
inhibition [40]: inactive

Cc1c(CC(=O)O)c2cccnc2n1S(=O)(=O)c1ccc(F)c(F)c1
fold change (FC) [1]: 1.3

Reference: ChEMBL document CHEMBL2440029, “Discovery and characterization of NVP-QAV680, a potent and selective CRTh2 receptor antagonist suitable for clinical testing in allergic diseases” (Bioorg Med Chem, 2013)
